The results in this text go back to patent US10253319B2, “miRNA modulators of thermogenesis” (AptamiR Therapeutics, Inc., priority 2012, dated 2019).

In this assay the test system is UCP3. As to the kind of experiment: UCP3 mRNA expression change in pre-adipocytes, RNA-Seq (Table 14). Type of assay: cell-based, human. To be noted: 12 days, 100 nM rosiglitazone or 25 nM miRNA analog. The procedure: In order to assess the effect of miRNA analogs on human pre-adipocytes differentiation into mature adipocytes, human subcutaneous pre-adipocytes (SuperLot 0048 from 8 female donors, ZenBio, NC) were plated on Day 0 into 96-well plates and allowed to attach overnight in preadipocyte medium (DMEM/Ham's F-12 (1:1, v/v), HEPES buffer, Fetal bovine serum and Antibiotics). The next day (Day 1), the medium was removed and replaced with differentiation medium (DMEM/Ham's F-12 (1:1, v/v), 100 μM Ascorbic Acid, 0.85 μM insulin, 20 nM sodium selenite, 0.2 nM, triiodothryonine, 1 μM dexamethasone, 100 μM isobutyl-methylxanthine, 100 nM Rosiglitazone and Antibiotics. The cells were allowed to incubate for 2 days at 37°, 5% CO2. After 2 days (Day 3), the medium was removed and replaced with fresh maintenance medium (DMEM/Ham's F-12 (1:1, v/v), 100 μM Ascorbic Acid, 0.85 μM insulin, 20 nM sodium selenite, 0.2 nM triiodothryonine, and Antibiotics). On Day 3, the cells were transfected with miRNA analogs (Dharmacon specific miRIDIAN Mimics and Hairpin Inhibitors) using the transfecting agent Dharmafect1. All treatments were in triplicate. […]
Changes in mRNA expression of UCP1, 2 and 3 were also measured in the presence of rosiglitazone or miRNA analogs, as shown below in Table 14.

With `CN(CCOc1ccc(CC2SC(=O)NC2=O)cc1)c1ccccn1` (stereo not shown) [rosiglitazone], the “mRNA Expression changes (log ratios) UCP3” value is 0.26 log ratios.
